Biological target: T1, rhJAK3 (Homo sapiens, UniProt P52333)
T1 construct: recombinant purified GST-tagged catalytic domain for each enzyme; purchased Invitrogen PV3855
Assay: JAK Biochemical HTRF Assay (JAK3)
Details: recombinant purified GST-tagged catalytic domain, HTRF format, [ATP] 1.7 μM; read-out: JAK3 IC50
Method: JAK Biochemical HTRF Assay Protocol
The ability of compounds to inhibit the activity of JAK1, JAK2, JAK3, and TYK2 was measured using a recombinant purified GST-tagged catalytic domain for each enzyme (Invitrogen JAK1 #PV4774, JAK2 #PV4210, JAK3 #PV3855, TYK2 #PV4790) in an HTRF format biochemical assay. The reactions employed a common peptide substrate, LCB-EQEDEPEGDYFEWLW-NH2. The basic assay protocol is as follows: First, […] of diluted compounds in DMSO were dispensed into the wells of a dry 384-well Black plate (Greiner #781076) using a Labcyte Echo 555 acoustic dispenser. Subsequent reagent additions employed a Thermo Multidrop Combi nL. Next, 10 μL of 2× enzyme and 2× substrate in 1× assay buffer (Invitrogen kinase buffer #PV3189, 2 mM DTT, 0.05% BSA) were added to the wells and preincubated for 30 min at room temperature to allow compound binding to equilibrate. After equilibration, 10 μl, of 2×ATP in 1× assay buffer was added to initiate the kinase reaction and the plates were incubated at room temperature for 120 min. At the end of the incubation, 20 μL of 2× stop buffer containing streptavidin-Dylight (Thermo #21845) and Eu-tagged pY20 antibody (Perkin Elmer #AD0067) was added to quench the reaction. Plates were further incubated 60 min at room temperature with shaking and then read on a Perkin Elmer Envision (λex=337 nm, λem=665 and 615 nm, TRF delay time=20 μs). HTRF signal=10,000*665 nm reading/615 nm reading. After normalization to untreated controls, the percent inhibition of the HTRF signal at each compound concentration was calculated. The plot of percent inhibition vs. the log of compound concentration was fit with a 4-parameter dose response equation to calculate IC50 values.

T1 sequence (P52333 822-1111 limits assumed): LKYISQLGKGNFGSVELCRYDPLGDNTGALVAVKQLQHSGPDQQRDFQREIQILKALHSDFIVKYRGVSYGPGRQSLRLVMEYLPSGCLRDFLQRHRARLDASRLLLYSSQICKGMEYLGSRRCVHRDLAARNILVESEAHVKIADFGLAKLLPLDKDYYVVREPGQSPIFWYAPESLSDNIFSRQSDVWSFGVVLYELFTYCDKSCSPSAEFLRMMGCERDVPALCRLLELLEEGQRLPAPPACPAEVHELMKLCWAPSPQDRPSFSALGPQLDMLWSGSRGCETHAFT

| IC50 [nM] | Compound |
| --- | --- |
| ≤ 1 | C[C@@H](Nc1cncc(-c2c[nH]c3ncc(-c4cccc(N5CCCC5)c4)cc23)n1)C(=O)NCC(F)(F)F [Example 15-1, N^2-{6-[5-(3-pyrrolidin-1-ylphenyl)-1H-pyrrolo[2,3-b]pyridin-3-yl]pyrazin-2-yl}-N-(2,2,2-trifluoroethyl)-D-alaninamide] |
| ≤ 1 | C[C@@H](Nc1cncc(-c2c[nH]c3ncc(-c4ccc(CC#N)nc4)cc23)n1)C(=O)NCC(F)(F)F [Example 15-2, N^2-(6-{5-[6-(cyanomethyl)pyridin-3-yl]-1H-pyrrolo[2,3-b]pyridin-3-yl}-pyrazin-2-yl)-N-(2,2,2-trifluoroethyl)-D-alaninamide] |
| ≤ 1 | C[C@@H](Nc1cncc(-c2c[nH]c3ncc(-c4ccc(C(O)C(F)(F)F)cc4)cc23)n1)C(=O)NCC(F)(F)F (stereo partly drawn) [Example 15-3, N-(2,2,2-trifluoroethyl)-N^2-(6-{5-[4-(2,2,2-trifluoro-1-hydroxyethyl)phenyl]-1H-pyrrolo[2,3-b]pyridin-3-yl}pyrazin-2-yl)-D-alaninamide] |
| 1 to 10 | C[C@@H](Nc1cncc(-c2c[nH]c3ncc(/C=C/CN(C)C)cc23)n1)C(=O)NCC(F)(F)F [Example 15-4, N^2-(6-{5-[(1E)-3-(dimethylamino)prop-1-en-1-yl]-1H-pyrrolo[2,3-b]pyridin-3-yl}pyrazin-2-yl)-N-(2,2,2-trifluoro-ethyl)-D-alaninamide] |
| 1 to 10 | C[C@@H](Nc1cncc(-c2c[nH]c3ncc(-c4ccnn4C)cc23)n1)C(=O)NCC(F)(F)F [Example 15-5, N^2-{6-[5-(1-methyl-1H-pyrazol-5-yl)-1H-pyrrolo[2,3-b]pyridin-3-yl]pyrazin-2-yl}-N-(2,2,2-trifluoroethyl)-D-alaninamide] |
| ≤ 1 | C[C@@H](Nc1cncc(-c2c[nH]c3ncc(-c4cnc(N)nc4)cc23)n1)C(=O)NCC(F)(F)F [Example 15-6, N^2-{6-[5-(2-aminopyrimidin-5-yl)-1H-pyrrolo[2,3-b]pyridin-3-yl]pyrazin-2-yl}-N-(2,2,2-trifluoroethyl)-D-alaninamide] |
| ≤ 1 | COCC#Cc1cnc2[nH]cc(-c3cncc(N[C@H](C)C(=O)NCC(F)(F)F)n3)c2c1 [Example 15-7, N^2-{6-[5-(3-methoxyprop-1-yn-1-yl)-1H-pyrrolo[2,3-b]pyridin-3-yl]pyrazin-2-yl}-N-(2,2,2-trifluoroethyl)-D-alaninamide] |
| 10 to 100 | C[C@@H](Nc1cncc(-c2c[nH]c3ncc(CN4CCC(F)C4)cc23)n1)C(=O)NCC(F)(F)F (stereo partly drawn) [Example 15-8, N^2-(6-{5-[(3-fluoropyrrolidin-1-yl)-methyl]-1H-pyrrolo[2,3-b]pyridin-3-yl}-pyrazin-2-yl)-N-(2,2,2-trifluoroethyl)-D-alaninamide] |
| ≤ 1 | C[C@@H](Nc1cncc(-c2c[nH]c3ncc(-c4cnn5c4CCC5)cc23)n1)C(=O)NCC(F)(F)F [Example 15-9, N^2-{6-[5-(5,6-dihydro-4H-pyrrolo[1,2-b]pyrazol-3-yl)-1H-pyrrolo[2,3-b]-pyridin-3-yl]pyrazin-2-yl}-N-(2,2,2-trifluoroethyl)-D-alaninamide] |
| ≤ 1 | C[C@@H](Nc1cncc(-c2c[nH]c3ncc(-c4cccc(N5CCOCC5)c4)cc23)n1)C(=O)NCC(F)(F)F [Example 15-10, N^2-{6-[5-(3-morpholin-4-ylphenyl)-1H-pyrrolo[2,3-b]pyridin-3-yl]pyrazin-2-yl}-N-(2,2,2-trifluoroethyl)-D-alaninamide] |
| ≤ 1 | CC(c1cccc(-c2cnc3[nH]cc(-c4cncc(N[C@H](C)C(=O)NCC(F)(F)F)n4)c3c2)c1)N1CCCC1 (stereo partly drawn) [Example 15-11, N^2-(6-{5-[3-(1-pyrrolidin-1-ylethyl)-phenyl]-1H-pyrrolo[2,3-b]pyridin-3-yl}pyrazin-2-yl)-N-(2,2,2-trifluoroethyl)-D-alaninamide] |
| ≤ 1 | C[C@@H](Nc1cncc(-c2c[nH]c3ncc(-c4cccc(CN5CCOCC5)c4)cc23)n1)C(=O)NCC(F)(F)F [Example 15-12, N^2-(6-{5-[3-(morpholin-4-yl-methyl)phenyl]-1H-pyrrolo[2,3-b]-pyridin-3-yl}pyrazin-2-yl)-N-(2,2,2-trifluoroethyl)-D-alaninamide] |
| 1 to 10 | C[C@@H](Nc1cncc(-c2c[nH]c3ncc(-c4ccccc4CN(C)C)cc23)n1)C(=O)NCC(F)(F)F [Example 15-13, N^2-[6-(5-{2-[(dimethylamino)methyl]-phenyl}-1H-pyrrolo(2,3-b]pyridin-3-yl)pyrazin-2-yl]-N-(2,2,2-trifluoroethyl)-D-alaninamide] |
| 10 to 100 | C[C@@H](Nc1cncc(-c2c[nH]c3ncc(-c4ccccc4OC(F)(F)F)cc23)n1)C(=O)NCC(F)(F)F [Example 15-14, N-(2,2,2-trifluoroethyl)-N^2-(6-{5-[2-(trifluoromethoxy)phenyl]-1H-pyrrolo[2,3-b]pyridin-3-yl}pyrazin-2-yl)-D-alaninamide] |
| ≤ 1 | C[C@@H](Nc1cncc(-c2c[nH]c3ncc(C4=CCOCC4)cc23)n1)C(=O)NCC(F)(F)F [Example 15-15, N^2-{6-[5-(3,6-dihydro-2H-pyran-4-yl)-1H-pyrrolo[2,3-b]pyridin-3-yl]pyrazin-2-yl}-N-(2,2,2-trifluoroethyl)-D-alaninamide] |
| ≤ 1 | C[C@@H](Nc1cncc(-c2c[nH]c3ncc(C4=CCCOC4)cc23)n1)C(=O)NCC(F)(F)F [Example 15-16, N^2-{6-[5-(5,6-dihydro-2H-pyran-3-yl)-1H-pyrrolo[2,3-b]pyridin-3-yl]pyrazin-2-yl}-N-(2,2,2-trifluoroethyl)-D-alaninamide] |

Same assay, conditions: recombinant purified GST-tagged catalytic domain, HTRF format, [ATP] 1.7 μM; read-out: rhJAK3 IC50

| IC50 [nM] | Compound |
| --- | --- |
| 10 to 100 | O=C(Cc1cncc(-c2c[nH]c3ncc(Cl)cc23)n1)NCCC(F)(F)F [Example 8-3, 2-[6-(5-chloro-1H-pyrrolo[2,3-b]-pyridin-3-yl)pyrazin-2-yl]-N-(3,3,3-trifluoropropyl) acetamide] |
| 10 to 100 | N#CCNC(=O)Cc1cncc(-c2c[nH]c3ncc(Cl)cc23)n1 [Example 8-4, 2-[6-(5-chloro-1H-pyrrolo[2,3-b]-pyridin-3-yl)pyrazin-2-yl]-N-(cyanomethyl)acetamide] |
| 10 to 100 | C/C(=C\c1cncc(-c2c[nH]c3ncc(Cl)cc23)n1)C(=O)NCC(F)(F)F [Example 9, (2E)-3-[6-(5-chloro-1H-pyrrolo[2,3-b]pyridin-3-yl)pyrazin-2-yl]-2-methyl-N-(2,2,2-trifluoro-ethyl)prop-2-enamide] |
| 100 to 1000 | O=C(NCC(F)(F)F)c1ccc(-c2cncc(-c3c[nH]c4ncc(Cl)cc34)n2)cc1 [Example 10, 4-[6-(5-Chloro-1H-pyrrolo[2,3-b]pyridin-3-yl)pyrazin-2-yl]-N-(2,2,2-trifluoroethyl)benzamide] |
| 1 to 10 | O=C(NCC(F)(F)F)C1=C(c2cncc(-c3c[nH]c4ncc(Cl)cc34)n2)CCC1 [Example 10-1, 2-[6-(5-chloro-1H-pyrrolo[2,3-b]pyridin-3-yl)pyrazin-2-yl]-N-(2,2,2-trifluoroethyl)cyclopent-1-ene-1-carboxamide] |
| 1 to 10 | CC1(C(=O)NCC(F)(F)F)CC1c1cncc(-c2c[nH]c3ncc(Cl)cc23)n1 (stereo not drawn) [Example 10-2, 2-[6-(5-chloro-1H-pyrrolo[2,3-b]pyridin-3-yl)pyrazin-2-yl]-1-methyl-N-(2,2,2-trifluoroethyl)cyclopropanecarboxamide] |
| 10 to 100 | CC(Cc1cncc(-c2c[nH]c3ncc(Cl)cc23)n1)C(=O)NCC(F)(F)F (stereo not drawn) [Example 11, 3-[6-(5-chloro-1H-pyrrolo[2,3-b]pyridin-3-yl)pyrazin-2-yl]-2-methyl-N-(2,2,2-trifluoroethyl)-propanamide] |
| 10 to 100 | O=C(CCc1cncc(-c2c[nH]c3ncc(Cl)cc23)n1)NCC(F)(F)F [Example 12, 3-[6-(5-chloro-1H-pyrrolo[2,3-b]pyridin-3-yl)pyrazin-2-yl]-N-(2,2,2-trifluoroethyl)propanamide] |
| ≤ 1 | C[C@@H](Nc1cncc(-c2c[nH]c3ncc(C4CC4)cc23)n1)C(=O)NCC(F)(F)F [Example 13, N^2-[6-(5-cyclopropyl-1H-pyrrolo[2,3-b]pyridin-3-yl)pyrazin-2-yl]-N-(2,2,2-trifluoroethyl)-D-alaninamide] |
| ≤ 1 | C[C@@H](Nc1cncc(-c2c[nH]c3ncc(-c4cnn(C)c4)cc23)n1)C(=O)NCC(F)(F)F [Example 14, N^2-{6-[5-(1-methyl-1H-pyrazol-4-yl)-1H-pyrrolo[2,3-b]pyridin-3-yl]pyrazin-2-yl}-N-(2,2,2-trifluoroethyl)-D-alaninamide] |
| 1 to 10 | Cc1cnc2[nH]cc(-c3cncc(N[C@H](C)C(=O)NCC(F)(F)F)n3)c2c1 [Example 15, N2-[6-(5-methyl-1H-pyrrolo[2,3-b]pyridin-3-yl)pyrazin-2-yl]-N-(2,2,2-trifluoroethyl)-D-alaninamide] |

Reference: patent publication US20130040933A1, “AZAINDOLES AS JANUS KINASE INHIBITORS” (priority 2010, published 2013)
